From article PMC10539501 (Nature Communications, 2023)
Starred links: 1 amine or outer side, 2 acyl side, 3 side chain; linkers in the order of their positions; H or OH if unused. Non-standard residues stand in square brackets, D forms with d. Residues, ends and D or L forms follow the SMILES beside them. X6 = O=C([C@H](Cc1ccc(O)cc1)NC(=S)[C@H]1CCCN1[*:1])[*:2]; X5 = CC(C)C[C@H](NC(=S)[C@H](CC(C)C)N[*:1])C(=O)[*:2]; NMeY = CN[C@@H](Cc1ccc(O)cc1)C(=O)O; NMeL = CN[C@@H](CC(C)C)C(=O)O; dNMeL = CN[C@H](CC(C)C)C(=O)O

Experiments:
in vitro [1] = details: human, microsomes
Description: (§1) A stability assessment of the peptides was done in simulated gastric (SGF) and intestinal (SIF) fluids and human liver microsomes. The degradation kinetics of the aliquoted samples at desired time points were analyzed through RP-HPLC.

[2] = type: physicochemical
[3] = type: physicochemical; remark: listed apart in the source
pepsin = pepsin (Sus scrofa, UniProt P00791); test: in vitro; details: simulated gastric fluid, pH 1.2
Sequence of pepsin (P00791 60-385): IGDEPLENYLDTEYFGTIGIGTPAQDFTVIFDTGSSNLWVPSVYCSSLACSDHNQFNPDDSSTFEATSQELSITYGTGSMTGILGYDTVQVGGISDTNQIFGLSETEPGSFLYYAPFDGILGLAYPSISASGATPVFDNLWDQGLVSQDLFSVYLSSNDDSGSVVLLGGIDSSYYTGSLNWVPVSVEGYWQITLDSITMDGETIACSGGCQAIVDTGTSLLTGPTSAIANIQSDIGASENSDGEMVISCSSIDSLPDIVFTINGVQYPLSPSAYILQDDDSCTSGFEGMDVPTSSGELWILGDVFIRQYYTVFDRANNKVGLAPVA
Description: as §1

physchem = details: pH 7.4
in vitro [4] = details: pig, simulated intestinal fluid
[5] = PAMPA passive permeability; type: in vitro ADME;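 note: passive permeability across an artificial membrane in 96-well pre-coated PAMPA plates, which lack transporters and efflux systems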
Description: Encouraged by this, the passive permeability of the analogs was evaluated using an artificial membrane (PAMPA), which measures permeability of compounds in the absence of transporters and efflux systems[32].
96-well BD Corning® pre-coated PAMPA plates were used following the supplier’s protocol, details in Supplementary Information.

in vitro [6] = details: both, human, plasma
in vitro [7] = details: both, human, plasma; remark: listed apart in the source

Description for human liver microsomes: as §1

Compound: CC(C)C[C@@H]1NC(=O)[C@H](Cc2ccc(O)cc2)NC(=O)[C@H]2CCCN2C(=O)[C@H](CC(C)C)NC(=S)[C@H](CC(C)C)NC(=O)[C@@H](CC(C)C)NC1=O [10b] (cyclo(L[dL][X5][dP]Y))
- microsomal CLint (in vitro [1]): 73 µL/min/mg
- remaining at 5 min (in vitro [1]): 85%
- remaining at 10 min (in vitro [1]): 65%
- remaining at 20 min (in vitro [1]): 49%
- remaining at 0.5 h (in vitro [1]): 34%
- remaining at 0.75 h (in vitro [1]): 28%
- remaining at 1 h (in vitro [1]): 15%
- logD heptane ethylene glycol [2]: 0.62
- % solubility [3]: 26%
- half-life (pepsin): 0.283 h
- remaining at 5 min (pepsin): 72%
- remaining at 10 min (pepsin): 57%
- remaining at 20 min (pepsin): 47%
- remaining at 0.5 h (pepsin): 38%
- remaining at 1 h (pepsin): 33%
- remaining at 2 h (pepsin): 27%
- remaining at 4 h (pepsin): 23%
- remaining at 8 h (pepsin): 17%
- remaining at 12 h (pepsin): 10%
- remaining at 24 h (pepsin): 5%
- logD (physchem): 1.42
- half-life (in vitro [4]): 1.6 h
- remaining at 10 min (in vitro [4]): 71.7%
- remaining at 0.5 h (in vitro [4]): 53.6%
- remaining at 1 h (in vitro [4]): 47.1%
- remaining at 2 h (in vitro [4]): 39%
- remaining at 4 h (in vitro [4]): 32.1%
- remaining at 8 h (in vitro [4]): 26.6%
- remaining at 12 h (in vitro [4]): 16.6%
- remaining at 24 h (in vitro [4]): 10.3%
- Pe Avg [5]: 4.3 ×10⁻⁶ cm/s
- Pe set1 [5]: 4.84 ×10⁻⁶ cm/s
- Pe set2 [5]: 3.05 ×10⁻⁶ cm/s
- Pe set3 [5]: 5.14 ×10⁻⁶ cm/s
- Papp ([5]; Pe Avg): 4.3 ×10⁻⁶ cm/s
- fraction unbound (in vitro [6]): 0.31
- Half lives (human liver microsomes): 19.0
- half-life (in vitro [7]): 23 h
- remaining at 1 h (in vitro [7]): 91%
- remaining at 3 h (in vitro [7]): 85%
- remaining at 5 h (in vitro [7]): 80%
- remaining at 7 h (in vitro [7]): 76%
- remaining at 9 h (in vitro [7]): 74%
- remaining at 12 h (in vitro [7]): 59%
- remaining at 24 h (in vitro [7]): 47%
- remaining at 36 h (in vitro [7]): 33%
- remaining at 48 h (in vitro [7]): 25%
- remaining at 60 h (in vitro [7]): 15%
- remaining at 72 h (in vitro [7]): 7%

Compound: CC(C)C[C@@H]1NC(=O)[C@H](Cc2ccc(O)cc2)NC(=S)[C@H]2CCCN2C(=O)[C@H](CC(C)C)NC(=O)[C@H](CC(C)C)NC(=O)[C@@H](CC(C)C)NC1=O [10d] (cyclo(LL[X6]L[dL]))
- microsomal CLint (in vitro [1]): 47 µL/min/mg
- remaining at 5 min (in vitro [1]): 96%
- remaining at 10 min (in vitro [1]): 71%
- remaining at 20 min (in vitro [1]): 61%
- remaining at 0.5 h (in vitro [1]): 50%
- remaining at 0.75 h (in vitro [1]): 40%
- remaining at 1 h (in vitro [1]): 20%
- logD heptane ethylene glycol [2]: 0.72
- % solubility [3]: 22%
- half-life (pepsin): 0.4 h
- remaining at 5 min (pepsin): 75%
- remaining at 10 min (pepsin): 66%
- remaining at 20 min (pepsin): 56%
- remaining at 0.5 h (pepsin): 44%
- remaining at 1 h (pepsin): 37%
- remaining at 2 h (pepsin): 29%
- remaining at 4 h (pepsin): 21%
- remaining at 8 h (pepsin): 16%
- remaining at 12 h (pepsin): 6%
- remaining at 24 h (pepsin): 2%
- logD (physchem): 1.24
- half-life (in vitro [4]): 1.35 h
- remaining at 10 min (in vitro [4]): 79.4%
- remaining at 0.5 h (in vitro [4]): 62.8%
- remaining at 1 h (in vitro [4]): 56.2%
- remaining at 2 h (in vitro [4]): 38.5%
- remaining at 4 h (in vitro [4]): 31.9%
- remaining at 8 h (in vitro [4]): 19.6%
- remaining at 12 h (in vitro [4]): 11.2%
- remaining at 24 h (in vitro [4]): 5.8%
- Pe Avg [5]: 4.2 ×10⁻⁶ cm/s
- Pe set1 [5]: 2.03 ×10⁻⁶ cm/s
- Pe set2 [5]: 5.97 ×10⁻⁶ cm/s
- Pe set3 [5]: 4.7 ×10⁻⁶ cm/s
- Papp ([5]; Pe Avg): 4.2 ×10⁻⁶ cm/s
- fraction unbound (in vitro [6]): 0.03
- Half lives (human liver microsomes): 29.5
- half-life (in vitro [7]): 20 h
- remaining at 1 h (in vitro [7]): 86%
- remaining at 3 h (in vitro [7]): 81%
- remaining at 5 h (in vitro [7]): 78%
- remaining at 7 h (in vitro [7]): 63%
- remaining at 9 h (in vitro [7]): 59%
- remaining at 12 h (in vitro [7]): 64%
- remaining at 24 h (in vitro [7]): 46%
- remaining at 36 h (in vitro [7]): 35%
- remaining at 48 h (in vitro [7]): 31%
- remaining at 60 h (in vitro [7]): 21%
- remaining at 72 h (in vitro [7]): 19%

Compound: CC(C)C[C@@H]1NC(=O)[C@@H](CC(C)C)N(C)C(=O)[C@H](CC(C)C)NC(=O)[C@H](Cc2ccc(O)cc2)NC(=O)[C@H]2CCCN2C(=O)[C@H](CC(C)C)NC1=O [10g] (cyclo(LL[dP]YL[dNMeL]))
- microsomal CLint (in vitro [1]): 83 µL/min/mg
- remaining at 2 min (in vitro [1]): 89%
- remaining at 10 min (in vitro [1]): 67%
- remaining at 20 min (in vitro [1]): 41%
- remaining at 0.5 h (in vitro [1]): 25%
- remaining at 0.75 h (in vitro [1]): 16%
- remaining at 1 h (in vitro [1]): 8%
- half-life (pepsin): 0.325 h
- remaining at 2 min (pepsin): 85%
- remaining at 10 min (pepsin): 65%
- remaining at 20 min (pepsin): 45%
- remaining at 0.5 h (pepsin): 38%
- remaining at 1 h (pepsin): 24%
- remaining at 2 h (pepsin): 9%
- remaining at 4 h (pepsin): 0%
- remaining at 8 h (pepsin): 0%
- remaining at 12 h (pepsin): 0%
- logD (physchem): 1.01
- half-life (in vitro [4]): 0.333 h
- remaining at 10 min (in vitro [4]): 67%
- remaining at 0.5 h (in vitro [4]): 41%
- remaining at 1 h (in vitro [4]): 22%
- remaining at 2 h (in vitro [4]): 10%
- remaining at 4 h (in vitro [4]): 0%
- remaining at 8 h (in vitro [4]): 0%
- remaining at 12 h (in vitro [4]): 0%
- Papp ([5]; Pe Avg): 2.75 ×10⁻⁶ cm/s
- fraction unbound (in vitro [6]): 0.35
- Half lives (human liver microsomes): 16.8
- half-life (in vitro [7]): 15 h
- remaining at 2 h (in vitro [7]): 92%
- remaining at 4 h (in vitro [7]): 83%
- remaining at 8 h (in vitro [7]): 69%
- remaining at 16 h (in vitro [7]): 51%
- remaining at 24 h (in vitro [7]): 28%
- remaining at 48 h (in vitro [7]): 22%
- remaining at 72 h (in vitro [7]): 13%

Compound: CC(C)C[C@@H]1NC(=O)[C@H](Cc2ccc(O)cc2)NC(=O)[C@H]2CCCN2C(=O)[C@H](CC(C)C)N(C)C(=O)[C@H](CC(C)C)NC(=O)[C@@H](CC(C)C)NC1=O [10i] (cyclo(L[NMeL][dP]YL[dL]))
- microsomal CLint (in vitro [1]): 113 µL/min/mg
- remaining at 2 min (in vitro [1]): 93%
- remaining at 10 min (in vitro [1]): 54%
- remaining at 20 min (in vitro [1]): 53%
- remaining at 0.5 h (in vitro [1]): 19%
- remaining at 0.75 h (in vitro [1]): 12%
- remaining at 1 h (in vitro [1]): 2.73%
- half-life (pepsin): 0.292 h
- remaining at 2 min (pepsin): 86%
- remaining at 10 min (pepsin): 58%
- remaining at 20 min (pepsin): 47%
- remaining at 0.5 h (pepsin): 30%
- remaining at 1 h (pepsin): 17%
- remaining at 2 h (pepsin): 11%
- remaining at 4 h (pepsin): 5%
- remaining at 8 h (pepsin): 2.5%
- remaining at 12 h (pepsin): 1%
- logD (physchem): 1.11
- half-life (in vitro [4]): 1.83 h
- remaining at 10 min (in vitro [4]): 90%
- remaining at 0.5 h (in vitro [4]): 81%
- remaining at 1 h (in vitro [4]): 68%
- remaining at 2 h (in vitro [4]): 46%
- remaining at 4 h (in vitro [4]): 32%
- remaining at 8 h (in vitro [4]): 6%
- remaining at 12 h (in vitro [4]): 3%
- Papp ([5]; Pe Avg): 3.2 ×10⁻⁶ cm/s
- fraction unbound (in vitro [6]): 0.38
- Half lives (human liver microsomes): 12.6
- half-life (in vitro [7]): 19 h
- remaining at 2 h (in vitro [7]): 92%
- remaining at 4 h (in vitro [7]): 83%
- remaining at 8 h (in vitro [7]): 74%
- remaining at 16 h (in vitro [7]): 58%
- remaining at 24 h (in vitro [7]): 38%
- remaining at 48 h (in vitro [7]): 26%
- remaining at 72 h (in vitro [7]): 4%

Compound: CC(C)C[C@@H]1NC(=O)[C@@H](CC(C)C)NC(=O)[C@H](CC(C)C)NC(=O)[C@H](Cc2ccc(O)cc2)N(C)C(=O)[C@H]2CCCN2C(=O)[C@H](CC(C)C)NC1=O [10j] (cyclo(LL[dP][NMeY]L[dL]))
- microsomal CLint (in vitro [1]): 49 µL/min/mg
- remaining at 2 min (in vitro [1]): 91%
- remaining at 10 min (in vitro [1]): 77%
- remaining at 20 min (in vitro [1]): 73%
- remaining at 0.5 h (in vitro [1]): 46%
- remaining at 0.75 h (in vitro [1]): 35%
- remaining at 1 h (in vitro [1]): 9%
- half-life (pepsin): 0.367 h
- remaining at 2 min (pepsin): 86%
- remaining at 10 min (pepsin): 78%
- remaining at 20 min (pepsin): 59%
- remaining at 0.5 h (pepsin): 32%
- remaining at 1 h (pepsin): 10%
- remaining at 2 h (pepsin): 1%
- remaining at 4 h (pepsin): 0%
- remaining at 8 h (pepsin): 0%
- remaining at 12 h (pepsin): 0%
- logD (physchem): 0.98
- half-life (in vitro [4]): 0.583 h
- remaining at 10 min (in vitro [4]): 70%
- remaining at 0.5 h (in vitro [4]): 58%
- remaining at 1 h (in vitro [4]): 38%
- remaining at 2 h (in vitro [4]): 21%
- remaining at 4 h (in vitro [4]): 4.54%
- remaining at 8 h (in vitro [4]): 0.525%
- remaining at 12 h (in vitro [4]): 0%
- Papp ([5]; Pe Avg): 4.59 ×10⁻⁶ cm/s
- fraction unbound (in vitro [6]): 0.21
- Half lives (human liver microsomes): 28.7
- half-life (in vitro [7]): 11 h
- remaining at 2 h (in vitro [7]): 75%
- remaining at 4 h (in vitro [7]): 61%
- remaining at 8 h (in vitro [7]): 56%
- remaining at 16 h (in vitro [7]): 38%
- remaining at 24 h (in vitro [7]): 25%
- remaining at 48 h (in vitro [7]): 9%
- remaining at 72 h (in vitro [7]): 4%

Compound: C[C@@H](O)[C@@H]1NC(=O)[C@H](CCCCN)NC(=O)[C@@H](Cc2c[nH]c3ccccc23)NC(=S)[C@H](Cc2ccccc2)NC(=O)[C@@H]2CCCN2C(=O)[C@H](Cc2ccccc2)NC1=O [13f]
- logD heptane ethylene glycol [2]: -0.91
- logD (physchem): -0.93
- Papp ([5]; Pe): 1.51 ×10⁻⁶ cm/s
- fraction unbound (in vitro [6]): 0.05
- half-life (in vitro [7]): 16 h
